Data taken from patent US20210317140A1, “Heterocyclic Compounds and Methods of Use” (MEDIVATION TECHNOLOGIES, INC, priority 2013, published 2021).

What was measured:
BTK = target: T1, BTK (Homo sapiens, UniProt Q06187); test: BTK kinase assay (HotSpot, 33P ATP); type: biochemical; settings: for BTK @ 0.01 μM (% Inh): 0.01 μM compound; for BTK @ 0.01 μM (% Inh) / BTK @ 0.1 μM (% Inh) / BTK @ 1 μM (% Inh): 10 μM ATP; for BTK @ 0.1 μM (% Inh): 0.1 μM compound; for IC50: 10 dose IC50, 10 μM ATP; for BTK @ 1 μM (% Inh): 1 μM compound
T1 construct: purchased Reaction Biology Corporation
Outline: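 In 20 mM Hepes (pH 7.5) with 10 mM MgCl2, 1 mM EGTA, 0.1 mM Na3VO4, 2 mM DTT, 0.02% Brij35, 0.02 mg/mL BSA and 1% DMSO, kinase and substrate were exposed to ten compound doses for 15–20 min.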

PI3Kδ = target: T2, PI3Kδ (Homo sapiens, UniProt O00329); test: PI3Kδ kinase assay (HTRF, PIP3 detection); type: biochemical; settings: for PI3Kδ @ 0.01 μM (% Inh): 0.01 μM compound; for PI3Kδ @ 0.01 μM (% Inh) / PI3Kδ @ 0.1 μM (% Inh) / PI3Kδ @ 1 μM (% Inh): 10 μM ATP; for PI3Kδ @ 0.1 μM (% Inh): 0.1 μM compound; for IC50: 10 dose IC50, 10 μM ATP; for PI3Kδ @ 1 μM (% Inh): 1 μM compound
T2 construct: purchased Reaction Biology Corporation
Outline: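 10-dose HTRF assay; kinase preincubated with compound 10 min at RT, then reacted with 10 μM PIP2 and 10 μM ATP for 30 min at 30 °C in HEPES pH 7.0 buffer. PIP3 product displaces biotin-PIP3 from the Eu/APC complex; signal converted to PIP3 via standard curve, IC50 by nonlinear regression.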

CD69+B220+ cells = test: B cell activation assay (IgD-stimulated splenocytes, CD69+B220+ cells by FACS); type: cell-based; settings: mouse splenocytes, IgD 3 μg/mL, 4 h; for CD69 @ 100 nM (% Inh): 100 nM compound
Description: 1 Female mouse approximately 2 months old was euthanized with CO2 and the spleen removed. The tissue was homogenized with a polished glass microscope slide. The cells were collected in 5 mL complete medium (RPMI+10% FBS+pen/strep), placed in a 15 mL falcon tube and centrifuged at 500×g for 5 min. The supernatant was discarded and the pellet was resuspended in 3 mL of ACK lysis buffer (NH4Cl 0.17M, KHCO3 10 mM, EDTA-Na2 0.1 mM, pH 7.2), incubated at 37° C. for 5 min. 2 mL complete medium was added and the mixture centrifuged at 500×g for 5 min. The supernatant was discarded and the pellet resuspended in 1 mL complete medium. The mixture was passed through a […] cell strainer and collect in 50 mL falcon tube. Enough medium was added to have a total of 10 mL. The cells were counted and seeded in 24 or 48-well plate in 1 mL complete medium at 10^6 cells/mL. The plate was placed in a 37° C. incubator for 15 min. The cells were treated for 30 min at 37° C. with 100 nM test compound dissolved in 100% DMSO. 3 μL IgD (Accurate chemical and scientific corp.) was added at a final concentration of 3 μg/mL and the mixture incubated at 37° C. for 4 h. The cells were collected in 1.5 mL eppendorf tubes, centrifuged at 500×g for 5 min and then resuspended in 100 μL of PBS+2% FBS. The following antibodies were added: α-B220 PE (pharmingen #553090), α-CD69 APC (pharmingen #60689), live/dead fixable aqua dead cell stain kit (life technologies #L34957) all at 1:300, and the mixture incubated for 15 min at 4° C. in the dark. To this was added 900 μL of PBS+2% FBS and the mixture centrifuged at 500×g for 5 min. The supernatant was removed and the pellet resuspended in 300 μL of PBS+2% FBS and mixed well. The mixture was transferred to a cytometer tube. The samples were run in the FACS Canto II cytometer and quantified by the number of CD69+B220+ cells as a percentage of the total number of B220+ alive cells.

T1 sequence (Q06187 whole entry): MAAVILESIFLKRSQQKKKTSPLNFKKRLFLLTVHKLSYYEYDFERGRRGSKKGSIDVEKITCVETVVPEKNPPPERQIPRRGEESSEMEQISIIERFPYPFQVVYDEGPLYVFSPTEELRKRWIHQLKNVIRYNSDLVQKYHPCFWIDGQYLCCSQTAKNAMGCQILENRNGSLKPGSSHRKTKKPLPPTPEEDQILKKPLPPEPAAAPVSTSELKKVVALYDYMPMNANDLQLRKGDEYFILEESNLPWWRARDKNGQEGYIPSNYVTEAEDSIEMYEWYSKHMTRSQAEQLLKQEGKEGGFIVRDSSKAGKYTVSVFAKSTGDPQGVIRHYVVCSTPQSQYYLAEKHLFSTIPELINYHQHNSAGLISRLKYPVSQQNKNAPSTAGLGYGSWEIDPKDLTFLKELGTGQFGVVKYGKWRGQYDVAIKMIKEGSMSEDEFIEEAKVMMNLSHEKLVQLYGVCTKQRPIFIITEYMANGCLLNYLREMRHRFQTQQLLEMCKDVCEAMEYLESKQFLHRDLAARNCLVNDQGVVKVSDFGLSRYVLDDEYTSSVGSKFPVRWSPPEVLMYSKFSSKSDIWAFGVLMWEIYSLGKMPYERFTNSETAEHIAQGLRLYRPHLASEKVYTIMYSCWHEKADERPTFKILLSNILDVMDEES
T2 sequence (O00329 whole entry): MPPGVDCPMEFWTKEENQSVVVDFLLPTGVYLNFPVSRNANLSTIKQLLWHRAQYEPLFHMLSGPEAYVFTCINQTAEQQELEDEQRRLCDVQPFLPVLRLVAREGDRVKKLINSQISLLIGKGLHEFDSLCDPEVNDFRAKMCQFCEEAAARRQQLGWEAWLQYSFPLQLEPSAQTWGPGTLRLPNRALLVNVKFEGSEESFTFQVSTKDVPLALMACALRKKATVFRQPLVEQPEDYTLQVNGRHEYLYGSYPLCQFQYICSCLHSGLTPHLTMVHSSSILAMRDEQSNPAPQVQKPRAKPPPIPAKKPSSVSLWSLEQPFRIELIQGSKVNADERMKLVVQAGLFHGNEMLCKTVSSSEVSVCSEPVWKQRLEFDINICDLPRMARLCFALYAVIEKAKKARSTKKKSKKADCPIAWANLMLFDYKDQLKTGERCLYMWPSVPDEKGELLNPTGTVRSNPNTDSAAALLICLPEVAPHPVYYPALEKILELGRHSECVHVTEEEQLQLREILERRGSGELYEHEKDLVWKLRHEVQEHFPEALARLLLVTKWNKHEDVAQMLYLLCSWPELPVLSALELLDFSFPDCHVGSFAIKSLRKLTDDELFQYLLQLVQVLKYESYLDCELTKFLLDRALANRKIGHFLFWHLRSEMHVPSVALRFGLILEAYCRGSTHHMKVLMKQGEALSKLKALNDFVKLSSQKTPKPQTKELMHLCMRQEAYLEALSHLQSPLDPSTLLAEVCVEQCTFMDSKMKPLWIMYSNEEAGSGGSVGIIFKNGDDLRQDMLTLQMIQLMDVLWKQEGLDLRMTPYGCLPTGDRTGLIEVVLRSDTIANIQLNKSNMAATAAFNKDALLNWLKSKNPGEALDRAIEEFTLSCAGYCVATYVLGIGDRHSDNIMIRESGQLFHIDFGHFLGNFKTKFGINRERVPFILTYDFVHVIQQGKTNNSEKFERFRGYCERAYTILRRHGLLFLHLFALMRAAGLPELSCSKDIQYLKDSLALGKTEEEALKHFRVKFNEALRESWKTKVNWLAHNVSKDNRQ
T2 sequence (P27986 whole entry partner): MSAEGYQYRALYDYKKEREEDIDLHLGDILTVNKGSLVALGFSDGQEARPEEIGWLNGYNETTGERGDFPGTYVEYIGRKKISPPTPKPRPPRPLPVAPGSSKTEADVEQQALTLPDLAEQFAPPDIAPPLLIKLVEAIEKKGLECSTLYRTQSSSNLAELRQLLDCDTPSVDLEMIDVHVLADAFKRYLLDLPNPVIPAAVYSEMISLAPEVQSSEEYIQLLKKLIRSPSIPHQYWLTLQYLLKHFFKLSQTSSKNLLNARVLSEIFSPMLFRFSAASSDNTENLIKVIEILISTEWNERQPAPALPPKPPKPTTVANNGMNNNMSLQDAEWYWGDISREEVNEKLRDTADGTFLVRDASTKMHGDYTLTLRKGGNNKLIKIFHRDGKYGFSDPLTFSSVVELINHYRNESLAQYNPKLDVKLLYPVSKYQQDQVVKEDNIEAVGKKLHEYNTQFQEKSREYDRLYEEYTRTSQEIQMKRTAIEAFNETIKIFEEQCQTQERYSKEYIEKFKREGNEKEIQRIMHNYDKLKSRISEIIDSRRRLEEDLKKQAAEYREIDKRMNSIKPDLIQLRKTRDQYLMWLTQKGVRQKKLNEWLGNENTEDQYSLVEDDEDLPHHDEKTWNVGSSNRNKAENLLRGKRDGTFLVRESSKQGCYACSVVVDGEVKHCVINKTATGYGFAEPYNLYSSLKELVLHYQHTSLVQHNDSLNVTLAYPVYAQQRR

Row | Structure (SMILES) | BTK @ 0.01 μM (% Inh) (BTK) | BTK @ 0.1 μM (% Inh) (BTK) | IC50 (BTK) [nM] | PI3Kδ @ 0.01 μM (% Inh) (PI3Kδ) | PI3Kδ @ 0.1 μM (% Inh) (PI3Kδ) | IC50 (PI3Kδ) [nM] | IC50 (CD69+B220+ cells; Splenocyte) [nM] | BTK @ 1 μM (% Inh) (BTK) | PI3Kδ @ 1 μM (% Inh) (PI3Kδ) | CD69 @ 100 nM (% Inh) (CD69+B220+ cells) | CD69 @ 100 nM (% Inh) (CD69+B220+ cells; 0.1 µM)
1 | Nc1ncnc2c1c(-c1cc(O)cc(F)c1)nn2C1CCc2cc(F)ccc21 (stereo not drawn) [compound 42, 3-[4-amino-1-(5-fluoro-2,3-dihydro-1H-inden-1-yl)-1H-pyrazolo[3,4-d]pyrimidin-3-yl]-5-fluorophenol] |  | 23.06 |  |  | 70.85 |  |  |  |  | 22.71 ± 5.53 (n = 3) % Inh | 
2 | C=CC(=O)N1CC(n2nc(-c3cc(O)cc(F)c3)c3c(N)ncnc32)Cc2cc(C)ccc21 (single isomer, unassigned) [31a, 1-(3-(4-amino-3-(3-fluoro-5-hydroxyphenyl)-1H-pyrazolo[3,4-d]pyrimidin-1-yl)-6-methyl-3,4-dihydroquinolin-1(2H)-yl)prop-2-en-1-one] | 67.39 | 93.84 | 9.5 | 33.04 | 68.13 | 27.7 |  |  |  |  | 15.47 ± 13.75 (n = 8) % Inh
3 | NC(=O)c1ccc(-c2nn(C3Cc4ccccc4C3)c3ncnc(N)c23)cc1O [compound 111, 4-[4-amino-1-(2,3-dihydro-1H-inden-2-yl)-1H-pyrazolo[3,4-d]pyrimidin-3-yl]-2-hydroxybenzamide] | 6.49 | 17.47 |  | 64.38 | 91.28 |  | 118 ± 11.1 |  |  | 57.39 ± 5.05 (n = 3) % Inh | 
4 | COc1ccc(-c2nn(C3CCc4ccccc4C3)c3ncnc(N)c23)cn1 (racemic) [compound 15, 3-(6-methoxypyridin-3-yl)-1-(1,2,3,4-tetrahydronaphthalen-2-yl)-1H-pyrazolo[3,4-d]pyrimidin-4-amine] |  |  | 565 |  |  | 67 |  |  |  | −0.75 ± 6.93 (n = 3) % Inh | 
5 | Nc1ncnc2c1c(-c1ccc3[nH]cnc3c1)nn2C1CCc2ccccc2C1 (single isomer, unassigned) [Compound No. 19a, 3-(1H-benzo[d]imidazol-5-yl)-1-(1,2,3,4-tetrahydronaphthalen-2-yl)-1H-pyrazolo[3,4-d]pyrimidin-4-amine] |  |  | 1210 |  |  | 14.8 |  |  |  |  | 24.62 ± 10.79 (n = 6) % Inh
6 | Nc1ncnc2c1c(-c1ccc(Br)c(O)c1)nn2C1CCc2ccccc21 (single isomer, unassigned) [36a, 5-[4-amino-1-(2,3-dihydro-1H-inden-1-yl)-1H-pyrazolo[3,4-d]pyrimidin-3-yl]-2-bromophenol] |  | 26.99 | 190 |  | 34.17 | 1 |  | 72.83 | 76.31 | 1.63 ± 7.31 (n = 3) % Inh | 
7 | Nc1cc(-c2nn(C3Cc4ccccc4C3)c3ncnc(N)c23)cnc1Cl [Compound No. 104, 5-[4-amino-1-(2,3-dihydro-1H-inden-2-yl)-1H-pyrazolo[3,4-d]pyrimidin-3-yl]-2-chloropyridin-3-amine] |  | 72.07 | 54.9 |  | 38.16 | 282 |  | 94.25 | 82.84 | 28.78 ± 19.62 (n = 5) % Inh | 
8 | COc1cc(-c2nn(C3Cc4ccccc4C3)c3ncnc(N)c23)ccc1O [Compound No. 85, 4-[4-amino-1-(2,3-dihydro-1H-inden-2-yl)-1H-pyrazolo[3,4-d]pyrimidin-3-yl]-2-methoxyphenol] | 12.89 | 43.43 | 154 | 35.56 | 59.95 | 34.7 |  |  |  | 24.82 ± 9.20 (n = 3) % Inh | 
9 | COc1ccc(-c2nn(C3CCc4ccccc4C3)c3ncnc(N)c23)cc1F (single isomer, unassigned) [Compound No. 14b, 3-(3-fluoro-4-methoxyphenyl)-1-(1,2,3,4-tetrahydronaphthalen-2-yl)-1H-pyrazolo[3,4-d]pyrimidin-4-amine] |  |  | 1590 |  |  | 25.4 |  |  |  | 24.20 ± 12.24 (n = 6) % Inh | 

Further lines, with some results ahead:

Row | BTK @ 0.01 μM (% Inh) (BTK) | BTK @ 0.1 μM (% Inh) (BTK) | IC50 (BTK) [nM] | PI3Kδ @ 0.01 μM (% Inh) (PI3Kδ) | PI3Kδ @ 0.1 μM (% Inh) (PI3Kδ) | IC50 (PI3Kδ) [nM] | IC50 (CD69+B220+ cells; Splenocyte) [nM] | BTK @ 1 μM (% Inh) (BTK) | PI3Kδ @ 1 μM (% Inh) (PI3Kδ) | Structure (SMILES) | CD69 @ 100 nM (% Inh) (CD69+B220+ cells) | CD69 @ 100 nM (% Inh) (CD69+B220+ cells; 0.1 µM)
10 | 41.16 | 86.29 | 20.2 | 41.19 | 84.46 | 23.2 |  |  |  | Nc1ncnc2c1c(-c1cc(O)c(F)c(F)c1)cn2C1CCc2ccccc2C1 (stereo not drawn) [compound 114, 5-[4-amino-7-(1,2,3,4-tetrahydronaphthalen-2-yl)-7H-pyrrolo[2,3-d]pyrimidin-5-yl]-2,3-difluorophenol] | 10.19 ± 13.54 (n = 3) % Inh | 
11 | 10.59 | 47.8 | 71.8 | 6.65 | 70.68 | 77.9 |  |  |  | NC(=O)c1cc(-c2cn(C3Cc4ccccc4C3)c3ncnc(N)c23)cc(O)c1F [compound 116, 5-[4-amino-7-(2,3-dihydro-1H-inden-2-yl)-7H-pyrrolo[2,3-d]pyrimidin-5-yl]-2-fluoro-3-hydroxybenzamide] | 20.48 ± 16.90 (n = 3) % Inh | 
12 | 39.05 | 80.31 | 14.2 | 22.51 | 62.27 | 32.8 |  |  |  | Nc1ncnn2c(C3Cc4ccccc4C3)cc(-c3cc(O)c(F)c(F)c3)c12 [compound 125, 5-[4-amino-7-(2,3-dihydro-1H-inden-2-yl)pyrrolo[2,1-f][1,2,4]triazin-5-yl]-2,3-difluorophenol] | 2.68 ± 2.32 (n = 3) % Inh | 
13 | 0.44 | 5.3 |  | 13.73 | 56.84 |  |  |  |  | NC(=O)c1cc(-c2nn(C3Cc4ccccc4C3)c3ncnc(N)c23)cc(O)c1F [compound 132, 5-[4-amino-1-(2,3-dihydro-1H-inden-2-yl)-1H-pyrazolo[3,4-d]pyrimidin-3-yl]-2-fluoro-3-hydroxybenzamide] | 27.67 ± 13.46 (n = 3) % Inh | 
14 | 4.47 | 34.18 |  | 8.34 | 52.39 |  |  |  |  | Nc1ncnc2c1c(-c1cc(F)c3c(c1)NCCO3)nn2C1CCc2ccccc2C1 (stereo not drawn) [compound 124, 3-(8-fluoro-3,4-dihydro-2H-1,4-benzoxazin-6-yl)-1-(1,2,3,4-tetrahydronaphthalen-2-yl)-1H-pyrazolo[3,4-d]pyrimidin-4-amine] | 14.44 ± 2.64 (n = 3) % Inh | 
15 | 93.67 | 1.41 |  | 77.84 | 91.68 |  |  |  |  | N#Cc1cc(-c2nn(C3Cc4ccccc4C3)c3ncnc(N)c23)cc(O)c1F [compound 120, 5-[4-amino-1-(2,3-dihydro-1H-inden-2-yl)-1H-pyrazolo[3,4-d]pyrimidin-3-yl]-2-fluoro-3-hydroxybenzonitrile] | −99.28 ± 22.26 (n = 3) % Inh | 
16 | 8.16 | 8.18 |  | 4.71 | 2.3 |  |  |  |  | Nc1ncnc2c1c(-c1cc(O)c(F)c(F)c1)nn2C1CCc2ncccc21 (stereo not drawn) [compound 126, 5-(4-amino-1-{5H,6H,7H-cyclopenta[b]pyridin-5-yl}-1H-pyrazolo[3,4-d]pyrimidin-3-yl)-2,3-difluorophenol] | 12.35 ± 7.52 (n = 3) % Inh | 
